Source: US6855728B2, “Small-molecule modulators of hepatocyte growth factor / scatter factor activities” (North Shore-Long Island Jewish Health System, priority 2001, dated 2005)

System: Endothelial cells (HUVECs)
Test: Endothelial cell (HUVEC) proliferation assay, 3H thymidine incorporation, compound without added growth factor
Assay type: cell-based, human
Conditions: for Stimulation at 5 microg/ml / Stimulation at 10 microg/ml / activation at 5 µg/mL / activation at 10 µg/mL: stimulation of endothelial cell proliferation; for activation at 5 µg/mL / activation at 10 µg/mL: 24 h; for Stimulation at 5 microg/ml / activation at 5 µg/mL / Stimulation/Inhibition at 5 microg/ml (result in words): 5 microg/ml
Experimental: Cell proliferation assays Endothelial cells (HUVECs) were seeded in 48 well plates at a density of 10,000 to 20,000 cells per well in the normal growth medium (EGM-2-Clonetics) containing 2% fetal bovine serum, FGF, VEGF, IGF, ascorbic acid, EGF, GA, heparin and hydrocortisone. The cells were grown normally in the growth medium for 24 hr at 37 degrees C. and 5% CO2. The cells were then rinsed with RPMI-1% BSA and starved for 1-2 hrs. The stock solutions of all the compounds were made at a concentration of 10 mg/ml in DMSO and diluted in RPMI-1% BSA at a final concentrations of 1 to 12 microgram/ml. The cells were then washed and treated with the compounds and incubated for another 24 hr at 37 degrees C. Then ^3H thymidine (0.5 microgram/ml in RPMI-BSA) was added to the cells and incubated at 37 degrees C. for 4 to 5 hours. The unincorporated thymidine was removed by washing the cells four times with 1× PBS. Then the cells were lysed with 0.5M NaOH for 30 min and the radioactivity counted in the beta counter. […]

[1] = Homo sapiens, HUVEC, 10 microg/ml

Row | SMILES | activation at 5 µg/mL (Homo sapiens, HUVEC) | activation at 10 µg/mL [1] | other results
1 | C=C(C)Cc1c(C)nn(S(=O)(=O)c2ccccc2)c1O [3-methyl-4-(2-methylallyl)-1-(phenylsulfonyl)-1H-pyrazol-5-ol] |  |  | Stimulation at 5 microg/ml: two fold stimulation; Stimulation/Inhibition at 10 microg/ml (result in words) (10 microg/ml): Not significant
2 | Cc1nn(S(=O)(=O)c2ccc(Cl)c(Cl)c2)c(C)c1Cc1c(F)cccc1Cl [4-(2-chloro-6-fluorobenzyl)-1-((3,4-dichlorophenyl)sulfonyl)-3,5-dimethyl-1H-pyrazole] |  |  | Activity at 2 microgram/ml Without HGF/SF: stimulation (2 microgram/ml, without HGF/SF, stimulation of HUVEC proliferation): 73%
3 | CNC(=O)n1nc(C)c(Cc2csc3ccc(Cl)cc23)c1C [4-[(5-chloro-1-benzothiophen-3-yl)methyl]-N,3,5-trimethyl-1H-pyrazole-1-carboxamide] |  |  | Stimulation at 5 microg/ml: two fold stimulation; Stimulation at 10 microg/ml (10 microg/ml): two fold stimulation
4 | O=C(c1ccc(Cl)cc1)n1ccc(-c2cc(-c3ccccc3)no2)n1 [(4-chlorophenyl)(3-(3-phenylisoxazol-5-yl)-1H-pyrazol-1-yl)methanone] | 54% | 60% | 
5 | Cc1nn(C(=O)Nc2ccc(Cl)cc2Cl)c(C)c1Cc1csc2ccc(Cl)cc12 [4-[(5-chloro-1-benzothiophen-3-yl)methyl]-N-(2,4-dichlorophenyl)-3,5-dimethyl-1H-pyrazole-1-carboxamide] | 75% | 35% | 
6 | O=C(Nc1ccc(Cl)cc1)n1ccc(C=Cc2cccs2)n1 [N1-(4-chlorophenyl)-3-(2-(2-thienyl)vinyl)-1H-pyrazole-1-carboxamide] |  | 55% | Stimulation/Inhibition at 5 microg/ml (result in words): No effect
7 | Cc1nn(C(=O)Nc2cccc(Cl)c2)c(C)c1Cc1csc2ccc(Cl)cc12 [N1-(3-chlorophenyl)-4-[(5-chlorobenzo[b]thiophen-3-yl)methyl]-3,5-dimethyl-1H-pyrazole-1-carboxamide] | 86% | 40% | 
8 | CNC(=O)n1ccc(C=Cc2cccs2)n1 [N-methyl-3-(2-(2-thienyl)vinyl)-1H-pyrazole-1-carboxamide] | 70% | 42% | 
9 | CCc1cn(C(=O)C(C)(C)C)nc1-c1c(F)cccc1F [1-[3-(2,6-difluorophenyl)-4-ethyl-1H-pyrazol-1-yl]-2,2-dimethylpropan-1-one] | 58% |  | Stimulation/Inhibition at 10 microg/ml (result in words) (10 microg/ml): not significant
10 | O=C(c1ccc(Cl)cc1)n1ccc(C(c2ccccc2)c2ccccc2)n1 [(3-benzhydryl-1H-pyrazol-1-yl)(4-chlorophenyl)methanone] |  | 25% | Stimulation/Inhibition at 5 microg/ml (result in words): No effect
11 | COC(=O)c1c(C)nn(C(=O)c2ccc(Cl)cc2)c1-c1ccno1 [methyl 1-(4-chlorobenzoyl)-5-isoxazol-5-yl-3-methyl-1H-pyrazole-4-carboxylate] |  | 33% | Stimulation/Inhibition at 5 microg/ml (result in words): Not significant
12 | Cc1nn(C(=O)c2ccc([N+](=O)[O-])cc2)c(C)c1Cc1csc2ccc(Cl)cc12 [{4-[(5-chlorobenzo[b]thiophen-3-yl)methyl]-3,5-dimethyl-1H-pyrazol-1-yl}(4-nitrophenyl)methanone] | 74% |  | Stimulation at 10 microg/ml (10 microg/ml): 2.5 fold stimulation
13 | Cc1nn(-c2ccccc2)c(O)c1Cc1c(Cl)cccc1Cl [4-(2,6-dichlorobenzyl)-3-methyl-1-phenyl-1H-pyrazol-5-ol] |  |  | Stimulation at 5 microg/ml: 2.3 fold stimulation; Stimulation at 10 microg/ml (10 microg/ml): two fold stimulation
14 | Cc1nn(S(=O)(=O)c2cc(C(F)(F)F)cc(C(F)(F)F)c2)c(C)c1Cc1c(F)cccc1Cl [4-(2-chloro-6-fluorobenzyl)-1-{[3,5-di(trifluoromethyl)phenyl]sulfonyl}-3,5-dimethyl-1H-pyrarole] |  |  | Stimulation at 5 microg/ml: 3.1 fold stimulation; Stimulation at 10 microg/ml (10 microg/ml): 2.4 fold stimulation
15 | Cc1nc(-c2ccc(-c3cccs3)s2)sc1-c1ccn(C(=O)c2ccc(Cl)cc2)n1 [(4-chlorophenyl)(3-(2-(5-(2-thienyl)-2-thienyl)-4-methyl-1,3-thiazol-5-yl)-1H-pyrazol-1-yl)methanone] | 20% | 33% | 
16 | N#Cc1c(Cl)cccc1Oc1ccc(-c2ccnn2Cc2ccc(Cl)cc2)cc1 [2-chloro-6-(4-(1-(4-chlorobenzyl)-1H-pyrazol-5-yl)phenoxy)benzonitrile] | 60% | 90% | 
17 | CC(C)(C)C(=O)n1ccc(C=Cc2cccs2)n1 [2,2-dimethyl-1-(3-(2-(2-thienyl)vinyl)-1H-pyrazole-1-yl)propan-1-one] |  | 55% | Stimulation/Inhibition at 5 microg/ml (result in words): No effect
18 | Cc1nn(C(=O)Nc2ccccc2)c(C)c1Cc1csc2ccc(Cl)cc12 [N1-phenyl-4-[(5-chlorobenzo[b]thiophen-3-yl)methyl]-3,5-dimethyl-1H-pyrazole-1-carboxamide] |  | 45% | Stimulation at 5 microg/ml: two fold stimulation
19 | Cc1onc(-c2c(Cl)cccc2Cl)c1C(=O)NN [3-(2,6-dichlorophenyl)-5-methylisoxazole-4-carbohydrazide] |  |  | Activity at 2 microgram/ml Without HGF/SF (result in words) (2 microgram/ml, without HGF/SF): not significant
20 | O=C(c1ccc(Cl)cc1)n1ccc(-c2ccc(-c3cccs3)s2)n1 [(4-chlorophenyl)(3-(5-(2-thienyl)-2-thienyl)-1H-pyrazol-1-yl)methanone] | 40% | 40% | 
21 | CS(=O)(=O)n1ccc(C=Cc2cccs2)n1 [1-(methylsulfonyl)-3-(2-(2-thienyl)vinyl)-1H-pyrazole] | 74% |  | Stimulation/Inhibition at 10 microg/ml (result in words) (10 microg/ml): Not significant
22 | CSc1cc(-c2ccc(Oc3ccccc3)cc2)nn1C(=O)c1ccc(Cl)cc1 [(4-chlorophenyl)(5-(methylthio)-3-(4-phenoxyphenyl)-1H-pyrazol-1-yl)methanone] |  |  | Stimulation/Inhibition at 5 microg/ml (result in words): No effect; inhibition at 10 µg/mL (Homo sapiens, HUVEC, 10 microg/ml, inhibition of endothelial cell proliferation): 40%
23 | Cc1nn(C(=O)c2ccc(Cl)cc2)c(C)c1Sc1nccn1C [(4-chlorophenyl)(3,5-dimethyl-4-((1-methyl-1H-imidazol-2-yl)thio)-1H-pyrazol-1-yl)methanone] | 52% | 50% | 
24 | O=C(Nc1ccccc1)n1ccc(C=Cc2cccs2)n1 [N1-phenyl-3-(2-(2-thienyl)vinyl)-1H-pyrazole-1-carboxamide] | 40% |  | Stimulation/Inhibition at 10 microg/ml (result in words) (10 microg/ml): Not significant
25 | Cc1nn(S(=O)(=O)c2ccccc2Cl)c(C)c1-c1csc2ccc(Cl)cc12 [4(5-chlorobenzo(b)thiophen-3-yl)-1-(2-chlorophenyl)sulfonyl)-3,5dimethyl-1-H-pyrazole] |  |  | Stimulation at 5 microg/ml: 1.8 fold stimulation; Stimulation/Inhibition at 10 microg/ml (result in words) (10 microg/ml): Not significant
26 | CCc1cn(C(=O)c2cccs2)nc1-c1c(F)cccc1F [[3-(2,6-difluorophenyl)-4-ethyl-1H-pyrazol-1-yl](2-thienyl)methanone] |  |  | Stimulation at 5 microg/ml: 2.5 fold stimulation; Stimulation at 10 microg/ml (10 microg/ml): two fold stimulation
27 | CCc1c[nH]nc1-c1c(F)cccc1F [3-(2,6-difluorophenyl)-4-ethyl-1H-pyrazole] |  | 86% | Stimulation at 5 microg/ml: two fold stimulation
